In patent publication USRE36374E, “1,2,3-triazole and tetrazole substituted piperidine or tetrahydropyridine compounds useful as acetylcholine agonists” (priority 1987, dated 1999):
Where a name gives a salt, the structure may show the parent alone. Read-outs that look alike come from different tables or passages of the source.

What was measured:
[1] = target: central cholinergic receptors; experiment: 3H-oxotremorine-M (Oxo-M) displacement from rat brain homogenates; format: binding; settings: displacement of 3H-oxotremorine-M, pH 7.4, 40 min, 30° C
Method: (§1) Affinity to central cholinergic receptors in vitro was measured as the ability of the compounds to displace ^3 H-oxotremorine-M (Oxo-M) from rat brain homogenates, while affinity to central muscarinic M-1-receptors in vitro was measured as the ability of the compounds to displace ^3 H-pirenzepin (Pz) from rat brain homogenates.
^3 H-oxotremorine M binding
was performed essentially as described by Birdsdall et al., 1980. Briefly, rat brains were homogenized in 100 vol (w/v) 10 mM Na,K-phosphate buffer (pH 7.4) and aliquots incubated with ^3 H-oxotremorine M (84.9 Ci/m-mol, NEN) alone or in the presence of test compound in a total volume of 1.5 ml for 40 min. at 30° C. The reaction was stopped by adding 5 ml cold buffer and filtered through Whatman GF/B filters soaked previously in 0.1% polyethylenimin (Sigma) for minimum 30 min. The filters were washed once with the same volume of buffer, transferred to scintillation vials and extracted in scintillation fluid (Pico-fluor 15, Packard) for at least two hours before counted in a liquid scintillation spectrometer (Beckman LS 1800). Non-specific binding was estimated at 10 μM atropine and all estimations made in triplicate. At least two displacement curves were made for each compound tested.
Birdsdall N. J. M., Hulme E. C., and Burgen A. S. V. (1980). "The Character of Muscarinic Receptors in Different Regions of the Rat Brain". Proc. Roy. […] London (Series B) 207, 1.

[2] = target: T1, central muscarinic M-1-receptors (Rattus norvegicus, UniProt P08482); experiment: 3H-pirenzepine (Pz) displacement from rat brain homogenates; format: binding
T1 sequence (P08482 1-460): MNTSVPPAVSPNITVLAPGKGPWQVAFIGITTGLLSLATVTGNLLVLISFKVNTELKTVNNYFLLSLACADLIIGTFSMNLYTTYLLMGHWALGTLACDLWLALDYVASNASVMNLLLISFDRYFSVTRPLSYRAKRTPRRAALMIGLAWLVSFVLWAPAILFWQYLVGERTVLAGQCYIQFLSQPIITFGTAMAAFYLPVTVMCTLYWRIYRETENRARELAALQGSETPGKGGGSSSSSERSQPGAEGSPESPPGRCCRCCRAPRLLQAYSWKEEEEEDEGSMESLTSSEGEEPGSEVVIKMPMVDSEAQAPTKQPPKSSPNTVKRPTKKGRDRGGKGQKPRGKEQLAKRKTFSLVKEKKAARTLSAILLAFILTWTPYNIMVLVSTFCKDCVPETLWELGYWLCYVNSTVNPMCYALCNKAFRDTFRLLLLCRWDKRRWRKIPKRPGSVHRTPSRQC
Method: as §1
was performed essentially as described by Watson et al., 1983, the conditions being very much the same as for ^3 H-oxotremorine binding, except that aliquots were incubated with 1.0 nM ^3 H-pirenzepine for 60 min. at 25° C. and that the reaction was stopped by direct filtration followed by 3 washes with 4 ml buffer.
Watson, M., Yamamura, H. I., and Roeske, W. R. (1983). "A unique regulatory profile and regional distribution of ^3 H-pirenzepin binding in the rat provide evidence for distinct M1 and M2 muscarinic receptor subtypes". Life Sci. 32 (1983) 3001-3011.

[3] = displacement of 1.0 nM 3H-pirenzepine, rat brain homogenates, 60 min, 25° C, read-out: Pz, IC50

Row | Structure (SMILES) | IC50 [1] [nM] | IC50 [2, 3] [nM] | IC50 [2] [nM]
1 | COc1cnc(C2=CCCN(C)C2)o1 [Compound 80, 5-Methoxy-2-(1-methyl-1,2,5,6-tetrahydro-3-pyridyl)-oxazol, oxalate] | – | 1500 | –
2 | CSc1cnc(C2=CCCN(C)C2)s1 [Compound 93, 5-Methylthio-2-(1-methyl-1,2,5,6-tetrahydro-3-pyridyl)-thiazole, fumarate] | 18 | 130 | –
3 | CN1CCC=C(c2nnn(C)n2)C1 [Compound 10, 2-Methyl-5-(1-methyl-1,2,5,6-tetrahydro-3-pyridyl)2H-tetrazole] | 8.7 | 390 | –
4 | Cc1cnc(C2=CCCN(C)C2)s1 [Compound 90, 5-Methyl-2-(1-methyl-1,2,5,6-tetrahydro-3-pyridyl)-thiazole, hemifumarate] | 180 | 420 | –
5 | CC1CC=C(c2nnn(C)n2)CN1 (centres unmarked) [Compound 30, 2-Methyl-5-(6-methyl-1,2,5,6-tetrahydro-3-pyridyl)-2H-tetrazole, hydrobromide] | 250 | 1400 | –
6 | CN1CCC=C(c2ncn(C)n2)C1 [Compound 59, 1-Methyl-3(1-methyl-1,2,5,6-tetrahydro-3-pyridyl)-1,2,4-triazole, hemifumarate] | 280 | 610 | –
7 | CC(C)n1nnc(C2=CCCN(C)C2)n1 [Compound 16, 2-Isopropyl-5-(1-methyl-1,2,5,6-tetrahydro-3-pyridyl)-2H-tetrazole, fumarate] | 120 | 130 | –
8 | CC(C)n1nnc(C2=CCCNC2)n1 [Compound 17, 2-Isopropyl-5-(1,2,5,6-tetrahydro-3-pyridyl)-2H-tetrazole, hydrobromide] | 280 | 480 | –
9 | CN1CCCC(c2nnn(C)n2)C1 (centres unmarked) [Compound 14, 2-Methyl-5-methyl-3-piperidyl)-2H-tetrazole, oxalate] | 1700 | 7400 | –
10 | Cc1coc(C2=CCCN(C)C2)n1 [Compound 84, 4-Methyl-2-(1-methyl-1,2,5,6-tetrahydro-3-pyridyl)-oxazole, oxalate] | 28 | 58 | –
11 | CC1CC=C(c2nnn(C)n2)CN1C (centres unmarked) [Compound 31, 2-Methyl-5-(1,6-dimethyl-1,2,5,6-tetrahydro-3-pyridyl)-2H-tetrazole] | 310 | 140 | –
12 | C#CCn1nnc(C2=CCCNC2)n1 [Compound 22, 2-(2-Propynyl)-5-(1,2,5,6-tetrahydropyridyl)-2H-tetrazole, hydrochloride] | – | 380 | –
13 | CC1CC=C(c2nnn(C(C)C)n2)CN1C (centres unmarked) [Compound 34, 2-Isopropyl-5-(1,6-dimethyl-1,2,5,6-tetrahydro-3-pyridyl)-2H-tetrazole] | 180 | 350 | –
14 | Cn1nnnc1C1=CCCNC1 [Compound 9, 1-Methyl-5(1,2,5,6-tetrahydro-3-pyridyl)-2H-tetrazole, fumarate] | 3200 | 27000 | –
15 | CC1CC=C(c2nnn(C(C)C)n2)CN1 (centres unmarked) [Compound 33, 2-Isopropyl-5-(6-methyl-1,2,5,6-tetraydro-3-pyridyl)-2H-tetrazole, hydrobromide] | 320 | 900 | –
16 | CSc1n[nH]c(C2=CCCN(C)C2)n1 [Compound 67, 3-Methylthio-5-(1-methyl-1,2,5,6-tetrahydro-3-pyridyl)-1,2,4-triazole, fumarate] | 1500 | 2000 | –
17 | Cn1ncc(C2=CCCNC2)n1 [Compound 72, 2-Methyl-4-(1,2,5,6-tetrahydro-3-pyridyl)-1,2,3-triazole, fumarate] | 0.48 | 790 | –
18 | Cc1nc(C2=CCCNC2)nn1C [Compound 64, 1,5Dimethyl-3-(1,2,5,6-tetrahydro-3-pyridyl)-1,2,4-triazole, dihydrobromide, dihydrate] | 2100 | 2400 | –
19 | CCn1nnc(C2=CCCN(C)C2)n1 [Compound 20, 2-Ethyl-5-(1-methyl-1,2,5,6-tetrahydro-3-pyridyl)-2H-tetrazole, oxalate] | 16 | 130 | –
20 | Cc1cc(C2=CCCNC2)no1 [Compound 55, 5-Methyl-3-(1,2,5,6-tetrahydro-3-pyridyl)-isoxazole, hydrochloride] | 1000 | 2500 | –
21 | Cc1coc(C2=CCCNC2)n1 [Compound 85, 4-Methyl-2-(1,2,5,6-tetrahydro-3-pyridyl)-oxazole, fumarate] | 7.5 | 1400 | –
22 | CC1C=C(c2nnn(C)n2)CNC1 (centres unmarked) [Compound 47, 2-Methyl-5-(5-methyl-1,2,5,6-tetrahydro-3-pyridyl)-2H-tetrazole, hydrobromide] | 98 | 280 | –
23 | CN1CCC=C(c2cnn(C)n2)C1 [Compound 70, 2-Methyl-4-(1-methyl-1,2,5,6-tetrahydro-3-pyridyl)-1,2,3-triazole, 1.5 fumarate] | 1.1 | 5.5 | –
24 | Cn1nnc(C2CCCNC2)n1 (centres unmarked) [Compound 13, 2-Methyl-(3-piperidyl)-2H-tetrazole, hydrochloride] | 47 | – | 3600
25 | Cn1nnc(C2=CCCNC2)n1 [Compound 8, 2-Methyl-5(1,2,5,6-tetrahydro-3-pyridyl)-2H-tetrazole, hydrobromide] | 6.3 | 2100 | –
26 | Cc1cnc(C2=CCCN(C)C2)o1 [Compound 75, 5-Methyl-2-(1-methyl-1,2,5,6-tetraydro-3-pyridyl)-oxazole, oxalate] | 57 | 370 | –

Now from value to molecule, other results behind:

Row | IC50 [1] [nM] | IC50 [2, 3] [nM] | Structure (SMILES) | IC50 [2] [nM]
27 | 130 | 400 | CN1CCC=C(C2=NC(C)(C)CO2)C1 [Compound 87, 4,4-Dimethyl-2-1-methyl-1,2,5,6-tetrahydro-3-pyridyl)-oxazoline, fumarate] | –
28 | 1400 | 4900 | Cn1cnc(C2=CCCNC2)n1 [Compound 60, 1-Methyl-3-(1,2,5,6-tetrahydro-3-pyridyl-1,2,4-triazole, dihydrobromide] | –
29 | 350 | 180 | Cc1cc(C2=CCCN(C)C2)nn1C [Compound 95, 1,5-Dimethyl-3-(1-methyl-1,2,5,6-tetrahydro-3-pyridyl)-pyrazole, dihydrochloride] | –
30 | 230 | 4000 | Cc1cc(C2=CCCNC2)on1 [Compound 54, 3-Methyl-5(1,2,5,6-tetrahydro-3-pyridyl)-isoxazole, maleate] | –
31 | 62 | 68 | C#CCn1nnc(C2=CC(C)CNC2)n1 (centres unmarked) [Compound 50, 2-(2-Propynyl)-5-(5-methyl-1,2,5,6-tetrahydro-3-pyridyl)-2H-tetrazole hydrochloride] | –
32 | 32 | 1500 | CCn1nnc(C2=CCCNC2)n1 [Compound 19, 2-Ethyl-5-(1,2,5,6-tetraydro-3-pyridyl)-2H-tetrazole, hydrobromide] | –
33 | 1000 | 1200 | CC1=C(c2nnn(C)n2)CN(C)CC1 [Compound 38, 2-Methyl-5(1,4-dimethyl-1,2,5,6-tetrahydro-3-pyridyl)-2H-tetrazole, oxalate] | –
34 | 680 | 1800 | CC1C=C(c2nnn(C)n2)CN(C)C1 (centres unmarked) [Compound 48, 2-Methyl-5-(1,5-dimethyl-1,2,5,6-tetrahydro-3-pyridyl)-2H tetrazole, oxalate] | –
35 | 810 | 1500 | CC1=C(c2nnn(C)n2)CNCC1 [Compound 39, 2-Methyl-5-(4-methyl-1,2,5,6-tetrahydro-3-pyridyl)-2H-tetrazole, 0.75 oxalate] | –
36 | 140 | 1100 | C=C=Cn1nnc(C2=CCCNC2)n1 [Compound 23, 2-Allenyl-5-(1,2,5,6-tetrahydro-3-pyridyl)-2H-tetrazole, hydrochloride] | –
37 | 390 | 250 | C#CCn1nnc(C2=CCC(C)NC2)n1 (centres unmarked) [Compound 36, 2-(2-Propynyl-5-(6-methyl-1,2,5,6-tetrahydro-3-pyridyl)-2H-tetrazole, hydrochloride] | –
38 | 360 | 1000 | Cc1cnc(C2=CCCNC2)s1 [Compound 91, 5-Methyl-2-(1,2,5,6-tetrahydro-3-pyridyl)-thiazole, fumarate] | –
